{"source": "patent US20260365699A1", "about": "“Compound Production Method” (The University of Tokyo, priority 2022, published 2026)", "key": {"[1]": {"target": "T1, TLR10 (Homo sapiens, UniProt Q9BXR5)", "T1 sequence (Q9BXR5 20-811)": "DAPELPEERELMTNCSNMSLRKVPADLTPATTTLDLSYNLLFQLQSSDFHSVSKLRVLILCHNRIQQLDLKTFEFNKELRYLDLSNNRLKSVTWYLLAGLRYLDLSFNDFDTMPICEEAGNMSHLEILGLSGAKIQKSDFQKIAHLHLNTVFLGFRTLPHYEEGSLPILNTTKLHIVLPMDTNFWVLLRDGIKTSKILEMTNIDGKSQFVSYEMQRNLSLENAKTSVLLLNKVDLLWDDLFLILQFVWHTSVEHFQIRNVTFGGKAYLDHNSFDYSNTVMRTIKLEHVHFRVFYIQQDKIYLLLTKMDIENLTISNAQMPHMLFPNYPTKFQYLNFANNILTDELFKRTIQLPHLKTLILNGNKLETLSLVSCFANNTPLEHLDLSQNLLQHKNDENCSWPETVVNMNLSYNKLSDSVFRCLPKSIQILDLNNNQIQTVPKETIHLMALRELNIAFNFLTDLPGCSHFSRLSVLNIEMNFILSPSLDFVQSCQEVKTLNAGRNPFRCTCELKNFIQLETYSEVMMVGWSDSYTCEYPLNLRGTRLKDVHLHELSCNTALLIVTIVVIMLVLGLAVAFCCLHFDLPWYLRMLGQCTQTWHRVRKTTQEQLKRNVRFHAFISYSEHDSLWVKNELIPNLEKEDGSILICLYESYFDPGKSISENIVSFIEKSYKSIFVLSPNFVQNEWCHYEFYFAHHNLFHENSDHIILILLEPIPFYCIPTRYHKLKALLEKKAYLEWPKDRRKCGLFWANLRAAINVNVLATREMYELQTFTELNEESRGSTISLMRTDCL", "assay": "Surface plasmon resonance (SPR) binding affinity to TLR10", "method": "Next, the binding affinity of each of the synthesized thiopeptides (14 types excluding IR1-ct and IR15-ct in FIG. 8) to the target IRAK4 and TLR10 was examined using surface plasmon resonance (SPR). […] Next, using an ADP-Glo-based kinase inhibition assay, the IC50 values of 4 types of thiopeptides for IRAK4 excluding IR1-ct and IR15-ct were evaluated."}, "[2]": {"target": "T2, TNIK (Homo sapiens, UniProt Q9UKE5)", "T2 sequence (Q9UKE5 whole entry)": "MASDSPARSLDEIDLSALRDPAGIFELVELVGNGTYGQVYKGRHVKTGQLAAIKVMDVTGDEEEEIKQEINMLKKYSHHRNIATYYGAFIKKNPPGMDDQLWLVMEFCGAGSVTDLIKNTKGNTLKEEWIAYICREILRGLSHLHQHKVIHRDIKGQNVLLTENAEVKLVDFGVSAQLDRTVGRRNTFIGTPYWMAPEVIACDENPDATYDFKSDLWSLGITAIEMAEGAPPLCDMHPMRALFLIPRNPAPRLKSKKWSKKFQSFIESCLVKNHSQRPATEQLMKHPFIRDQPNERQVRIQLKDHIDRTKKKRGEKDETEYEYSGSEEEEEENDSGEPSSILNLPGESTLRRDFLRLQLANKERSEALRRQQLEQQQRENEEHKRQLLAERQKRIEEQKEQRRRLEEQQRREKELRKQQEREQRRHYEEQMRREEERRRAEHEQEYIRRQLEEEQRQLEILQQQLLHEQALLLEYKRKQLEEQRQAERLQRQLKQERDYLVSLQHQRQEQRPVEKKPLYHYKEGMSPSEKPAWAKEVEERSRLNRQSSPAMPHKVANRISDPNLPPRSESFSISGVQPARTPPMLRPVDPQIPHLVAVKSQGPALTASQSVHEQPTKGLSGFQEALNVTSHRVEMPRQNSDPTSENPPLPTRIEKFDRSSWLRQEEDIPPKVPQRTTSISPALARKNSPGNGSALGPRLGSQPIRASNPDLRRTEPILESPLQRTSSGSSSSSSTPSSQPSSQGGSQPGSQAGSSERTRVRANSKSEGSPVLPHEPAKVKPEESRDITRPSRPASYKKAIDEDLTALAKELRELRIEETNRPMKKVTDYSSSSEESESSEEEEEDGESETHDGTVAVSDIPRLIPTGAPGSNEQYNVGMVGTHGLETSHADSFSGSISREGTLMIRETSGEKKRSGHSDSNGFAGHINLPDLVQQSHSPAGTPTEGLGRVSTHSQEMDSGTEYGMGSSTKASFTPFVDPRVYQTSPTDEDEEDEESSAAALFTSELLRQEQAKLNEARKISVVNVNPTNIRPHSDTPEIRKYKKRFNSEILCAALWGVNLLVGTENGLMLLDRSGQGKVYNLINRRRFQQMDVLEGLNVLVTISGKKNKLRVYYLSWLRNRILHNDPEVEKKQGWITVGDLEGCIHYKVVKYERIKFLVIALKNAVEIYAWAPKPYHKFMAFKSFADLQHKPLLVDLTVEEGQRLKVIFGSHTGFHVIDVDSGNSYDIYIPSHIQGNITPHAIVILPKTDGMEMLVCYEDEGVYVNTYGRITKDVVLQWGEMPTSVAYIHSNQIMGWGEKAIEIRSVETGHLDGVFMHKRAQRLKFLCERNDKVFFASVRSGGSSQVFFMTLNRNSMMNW", "assay": "Surface plasmon resonance (SPR) binding affinity to TNIK", "details": "saturated concentration of ATP (1 mM; 15-fold higher than KM)", "text": "Surface plasmon resonance (SPR) was used to evaluate the binding affinity of the thiopeptide synthesized in Example 2 to TNIK."}, "[3]": {"test_system": "Axin2", "assay": "Axin2 protein level in HCT116 cells (immunoblotting)", "assay_type": "cell-based, human", "details": "20 μM, 24 hours", "method": "(§1) The sub-confluent HCT116 cells were treated with the indicated compounds for 24 hours and the cellular levels of TNIK, TNIK pSer764 (autophosphorylation product), c-Myc, and Axin2 were analyzed by an immunoblotting method (FIG. 7(b)) and RT-qPCR (FIG. 7(c))."}, "[4]": {"target": "T3, MST1 (Homo sapiens, UniProt Q13043)", "T3 sequence (Q13043 1-487)": "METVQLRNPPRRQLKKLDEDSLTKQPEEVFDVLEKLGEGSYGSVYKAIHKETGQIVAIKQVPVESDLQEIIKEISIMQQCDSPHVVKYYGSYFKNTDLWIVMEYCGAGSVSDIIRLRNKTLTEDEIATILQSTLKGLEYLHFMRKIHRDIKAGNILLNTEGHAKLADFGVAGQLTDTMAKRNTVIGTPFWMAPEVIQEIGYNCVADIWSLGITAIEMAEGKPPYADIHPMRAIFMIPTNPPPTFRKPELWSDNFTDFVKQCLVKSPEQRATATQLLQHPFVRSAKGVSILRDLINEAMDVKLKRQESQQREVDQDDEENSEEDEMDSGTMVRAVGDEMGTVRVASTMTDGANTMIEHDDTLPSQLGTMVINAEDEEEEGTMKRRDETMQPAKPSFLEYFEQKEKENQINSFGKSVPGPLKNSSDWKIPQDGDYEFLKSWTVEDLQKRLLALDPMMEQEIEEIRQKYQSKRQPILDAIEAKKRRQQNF", "assay": "Kinase selectivity profiling (MST1)", "assay_type": "biochemical", "details": "concentration of 1 μM", "method": "(§2) Next, a kinase selectivity profiling experiment was carried out using a panel of various human kinases."}, "[5]": {"target": "LOK (Homo sapiens, UniProt O94804)", "sequence (O94804 whole entry)": "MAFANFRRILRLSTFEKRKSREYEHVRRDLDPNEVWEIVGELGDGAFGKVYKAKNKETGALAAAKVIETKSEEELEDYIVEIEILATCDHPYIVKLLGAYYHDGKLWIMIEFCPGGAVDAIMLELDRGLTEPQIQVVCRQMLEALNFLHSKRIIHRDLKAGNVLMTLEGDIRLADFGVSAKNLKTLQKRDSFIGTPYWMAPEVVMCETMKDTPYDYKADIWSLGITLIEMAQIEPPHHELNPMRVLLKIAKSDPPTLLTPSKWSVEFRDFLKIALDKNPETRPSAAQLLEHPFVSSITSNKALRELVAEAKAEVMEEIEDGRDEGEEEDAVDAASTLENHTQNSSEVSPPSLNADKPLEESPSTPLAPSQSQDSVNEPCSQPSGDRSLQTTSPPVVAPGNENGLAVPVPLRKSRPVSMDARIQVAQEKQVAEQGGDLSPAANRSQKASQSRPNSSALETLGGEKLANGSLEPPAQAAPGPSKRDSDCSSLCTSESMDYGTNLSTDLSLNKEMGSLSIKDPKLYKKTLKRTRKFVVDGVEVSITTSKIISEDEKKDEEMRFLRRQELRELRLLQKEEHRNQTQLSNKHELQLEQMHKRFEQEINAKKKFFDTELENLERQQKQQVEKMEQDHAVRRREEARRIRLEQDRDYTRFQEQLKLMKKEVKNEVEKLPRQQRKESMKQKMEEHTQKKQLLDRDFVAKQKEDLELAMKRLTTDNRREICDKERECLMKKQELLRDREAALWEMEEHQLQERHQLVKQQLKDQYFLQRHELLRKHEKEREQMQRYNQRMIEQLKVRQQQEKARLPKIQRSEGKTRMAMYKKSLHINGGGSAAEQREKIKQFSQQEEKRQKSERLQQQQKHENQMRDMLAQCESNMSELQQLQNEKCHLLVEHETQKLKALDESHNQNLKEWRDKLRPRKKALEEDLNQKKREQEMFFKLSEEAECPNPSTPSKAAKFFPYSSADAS", "assay": "Kinase selectivity profiling (LOK)", "assay_type": "biochemical", "details": "concentration of 1 μM", "method": "as §2"}, "[6]": {"test_system": "TNIK pSer764", "assay": "Immunoblotting of TNIK pSer764 (TNIK autophosphorylation) in HCT116 cells", "assay_type": "cell-based, human", "method": "as §1\nNat. Commun. 2016, 7, 12586)."}, "[7]": {"test_system": "TNIK mRNA", "assay": "TNIK mRNA level in HCT116 cells (RT-qPCR)", "assay_type": "cell-based, human", "method": "as §1"}, "[8]": {"test_system": "c-Myc", "assay": "c-Myc protein level in HCT116 cells (immunoblotting)", "assay_type": "cell-based, human", "details": "20 μM, 24 hours", "method": "as §1"}, "[9]": {"test_system": "AXIN2 mRNA", "assay": "AXIN2 mRNA transcription in HCT116 cells (RT-qPCR)", "assay_type": "cell-based, human", "method": "as §1"}, "[10]": {"test_system": "MYC mRNA", "assay": "MYC mRNA transcription in HCT116 cells (RT-qPCR)", "assay_type": "cell-based, human", "method": "as §1"}, "[11]": {"assay": "Stability / reactivity towards glutathione (GSH), LC/MS", "assay_type": "physicochemical"}, "[12]": {"assay": "Metabolic stability in human serum (LC/MS)", "assay_type": "in vitro ADME", "details": "37 °C", "method": "The compounds were incubated with a human serum at 37 °C, and the amount of the residual test substance at various points in time was quantified by LC/MS with respect to an internal standard substance. […] Next, it was examined whether or not the half-lives of the compounds were affected by the reactivity of the Dha residue. The Dha residue may be conjugated with various serum thiols.\nIn addition, the metabolic stability of all of the 14 types of candidate thiopeptides was examined. The compound was incubated with the human serum at 37 °C, and the amount of the residual thiopeptide at various points in time was quantified by LC/MS with respect to the internal standard substance. The half-life of the thiopeptide for TLR10 was generally as long as 38.2 hours, and the thiopeptide was stable."}, "[13]": {"test_system": "HEK293H cells", "assay": "Chloroalkane penetration assay (CAPA) in HEK293H cells", "assay_type": "cell-based, human", "details": "chloroalkane-labeled derivatives", "method": "as §1\nNext, it was confirmed whether or not the obtained compound could also access an intracellular target protein (TNIK is localized in the cytoplasm and the cell nucleus) in a human cell model. First, a chloroalkane penetration assay (CAPA) was performed on 4 types (TP1-ct, TP8-ct, TP14-ct, and TP15-ct) out of the 6 types of chloroalkane-labeled thiopeptide derivatives shown in FIG. 5 in order to measure an uptake degree into the cytoplasm (Peraro, L.; Deprey, K. L.; Moser, M. K.; Zou, Z.; Ball, H. L.; Levine, B.; and Kritzer, J. A. Cell Penetration Profiling Using the Chloroalkane Penetration Assay. J. Am. Chem. Soc. 2018, 140, 11360-11369)."}, "[14]": {"test_system": "TNIK", "assay": "TNIK protein level in HCT116 cells (immunoblotting)", "assay_type": "cell-based, human", "method": "as §1"}, "[15]": {"target": "T2, TNIK", "assay": "Kinetic analysis (Lineweaver-Burk plots) of TNIK inhibition", "assay_type": "biochemical", "details": "role: inhibitor"}}, "note": "*1 amine or outer side, *2 acyl side, *3 side chain or, on linkers, in order; H or OH if unused. Where a SMILES comes first, the peptide text is derived from it. Bridges are numbered along the chain shown (N, C = ends). X1 = C=C(N[*:2])c1nc(-c2nc(-c3nc(C(=O)OC)cs3)ccc2C(=O)[*:1])cs1", "data": [{"smiles": "C=C1NC(=O)[C@H](Cc2c[nH]cn2)NC(=O)[C@H]([C@@H](C)CC)NC(=O)[C@H](C(C)C)NC(=O)[C@H](C(C)C)NC(=O)[C@H](CC(N)=O)NC(=O)[C@H](C(C)C)NC(=O)[C@H](CCCNC(=N)N)NC(=O)[C@H](CO)NC(=O)[C@H](CC(C)C)NC(=O)[C@H](CCC(=O)O)NC(=O)[C@H](CC(C)C)NC(=O)[C@H](CO)NC(=O)[C@H](Cc2c[nH]c3ccccc23)NC(=O)c2ccc(-c3nc(C(=O)OC)cs3)nc2-c2csc1n2", "note": "[TL7] (WSLELSRVNVVIH; linker N-C via X1)", "values": [{"measurement": "Kd", "setting": "[1]", "value": 306, "unit": "nM"}]}, {"smiles": "C=C1NC(=O)c2csc(n2)[C@H]([C@@H](C)O)NC(=O)[C@H](C)NC(=O)[C@H]([C@@H](C)CC)NC(=O)[C@H](CCCNC(=N)N)NC(=O)CNC(=O)[C@H](CCCNC(=N)N)NC(=O)[C@H]([C@@H](C)O)NC(=O)[C@H](CCCNC(=N)N)NC(=O)[C@H]([C@@H](C)CC)NC(=O)[C@H]([C@@H](C)O)NC(=O)[C@H](Cc2c[nH]c3ccccc23)NC(=O)c2ccc(-c3nc(C(=O)OC)cs3)nc2-c2csc1n2", "note": "[TP15]", "values": [{"measurement": "binding to TNIK in the presence of ATP", "setting": "[2]", "value": "bonded to TNIK in the presence of the saturated concentration of ATP"}, {"measurement": "protein level of Axin2", "setting": "[3]", "value": "decreased"}, {"measurement": "inhibition of MST1", "setting": "[4]", "value": "inhibited"}, {"measurement": "inhibition of LOK", "setting": "[5]", "value": "inhibited"}, {"measurement": "level of TNIK pSer764", "setting": "[6]; 20 μM of TP15, 24 hours, immunoblotting", "value": "decreased"}, {"measurement": "TNIK autophosphorylation, in words (figure legend)", "setting": "[6]; 24 hours", "value": "inhibition of TNIK autophosphorylation"}, {"measurement": "overall expression of TNIK, mRNA level", "setting": "[7]", "value": "not TP15"}, {"measurement": "protein level of c-Myc", "setting": "[8]", "value": "decreased"}, {"measurement": "transcription of AXIN2 mRNA", "setting": "[9]", "value": "suppressed in a concentration-dependent manner"}, {"measurement": "transcription of MYC mRNA", "setting": "[10]", "value": "suppressed in a concentration-dependent manner"}, {"measurement": "residual amount in the presence of GSH", "setting": "[11]; 10 mM GSH, after 24 hours", "value": "> 95", "unit": "%"}, {"measurement": "reactivity with GSH, in words", "setting": "[11]; increasing concentration of glutathione (GSH)", "value": "stable"}, {"measurement": "stability in human serum, in words", "setting": "[12]", "value": "short half-life"}, {"measurement": "cytoplasmic uptake (CAPA), in words", "setting": "[13]", "value": "efficient cytoplasmic translocation"}, {"measurement": "overall expression of TNIK, protein level", "setting": "[14]", "value": "not TP15"}, {"measurement": "mode of TNIK inhibition", "setting": "[15]", "value": "substrate competitive inhibitor"}]}]}
